Measured values: US12024543B2, “Micropeptides and use of same for modulating gene expression” (UNIVERSITE PAUL SABATIER TOULOUSE III, priority 2013, dated 2024)

How the values were obtained:
[1] = tested on: AtmiR319a; experiment: Expression of AtmiPEP319a2 (AtmiORF319a) in tobacco expressing AtmiR319a; assay type: in vivo, Nicotiana benthamiana; settings: overexpression of AtmiORF319a
Protocol: At present, AtmiPEP165a and AtmiPEP319a2, identified in Arabidopsis thaliana, have already been characterized.
(§1) The total RNA was extracted from roots of M. truncatula or from tobacco leaves using the extraction kit RNeasy Plant Mini Kit (Qiagen). The reverse transcription was performed using the reverse transcriptase SuperScript II (Invitrogen) starting from 500 ng of total RNA. Three repetitions (n=3) were carried out, each with two technical repetitions. Each experiment was repeated from two to three times. The amplifications by qPCR were carried out using a LightCycler 480 System thermocycler (Roche Diagnostics) by the method described in Lauressergues et al. (Plant J., 72(3): 512-22, 2012).
For the miPEPs 165a and 319a, the corresponding miORFs were cloned into pBIN19 by the method described in Combier et al. (Genes & Dev, 22: 1549-1559, 2008).
(§2) The composite plants having roots transformed with Agrobacterium rhizogenes were obtained by the method described in Boisson-Dernier et al. (Mol Plant-Microbe Interact, 18: 1269-1276, 2005). The transformed roots were verified and selected by observations of DsRED with a binocular fluorescence magnifier. The control roots correspond to roots transformed with A. rhizogenes not containing the pPEX-DsRED vector. Transformation of the tobacco leaves was carried out by the method described in Combier et al. (Genes & Dev, 22: 1549-1559, 2008).

[2] = tested on: MtmiR171b; experiment: Watering of M. truncatula plants with synthetic MtmiPEP171b1, relative expression by qRT-PCR; assay type: in vivo, Medicago truncatula; settings: watering once daily for 5 days with MtmiPEP171b1 at 0.01, 0.1 or 1 μM
Protocol: The surface of seeds of M. truncatula was sterilized and they were left to germinate on agar plates for 5 days at 4° C. in the dark. The young shoots were then grown on 12-cm square plates filled with Fahraeus medium without nitrogen and containing 7.5 μM phosphate (Lauressergues et al., Plant J., 72(3): 512-22, 2012). The lateral roots were counted every day. In pots, the plants were watered every other day with modified Long Ashton medium with low phosphorus content (Balzergue et al., Journal of Experimental Botany, (62)1049-1060, 2011).
The peptides were synthesized by Eurogentec or Smartox-Biotech. MtmiPEP171b1 was resuspended in a solution of 40% water/50% acetonitrile/10% acetic acid (v/v/v), and the other peptides were resuspended in water.
The RNA was extracted using the reagent Tri-Reagent (MRC) according to the manufacturer's instructions, except for precipitation of the RNA, which was carried out with 3 volumes of ethanol. The reverse transcription of the RNA was carried out using the specific stem-loop primer RTprimer171b in combination with hexamers for performing the reverse transcription of RNA of high molecular weight.
In brief, 1 μg of RNA was added to the stem-loop primer MIR171b (0.2 μM), the hexamer (500 ng), the buffer RT (1×), the enzyme SuperScript Reverse transcriptase (SSIII) (one unit), the dNTPs (0.2 mM each), DTT (0.8 mM) in a final reaction mixture of 25 μl. In order to carry out the reverse transcription, a reaction of pulsed reverse transcription was performed (40 repetitions of the following cycle: 16° C. for 2 minutes, 42° C. for one minute and 50° C. for one second, followed by a final inactivation of the reverse transcription at 85° C. for 5 minutes).
as §1
The mean values of the relative expression of the genes or of the production of lateral roots were analysed using the Student test or the Kruskal-Wallis test. The error bars represent the SEM (Standard Error of the Mean). The asterisks indicate a significant difference (p<0.05).

[3] = tested on: Medicago truncatula; experiment: Number of lateral roots in M. truncatula; assay type: in vivo; settings: vs control plant
Protocol: The surface of seeds of M. truncatula was sterilized and they were left to germinate on agar plates for 5 days at 4° C. in the dark. […] The lateral roots were counted every day. […] The mean values of the relative expression of the genes or of the production of lateral roots were analysed using the Student test or the Kruskal-Wallis test. The error bars represent the SEM (Standard Error of the Mean). The asterisks indicate a significant difference (p<0.05).

[4] = tested on: MtmiR171b; experiment: Overexpression of MtmiPEP171b1 (MtmiORF171b) in M. truncatula roots, relative expression by qRT-PCR; assay type: in vivo, Medicago truncatula; settings: vs control plant
Protocol: as §1
(§3) The DNA fragments of interest were amplified with Pfu polymerase (Promega). The DNA fragments were cloned using the XhoI and NotI enzymes into a pPEX-DsRED plasmid for an overexpression under the control of the constitutive strong promoter 35S, and using the KpnI-NcoI enzymes into a pPEX GUS plasmid for the reporter genes, by the method described in Combier et al. (Genes & Dev, 22: 1549-1559, 2008).
as §2

[5] = tested on: pre-MtmiR169, pre-MtmiR169a, pre-MtmiR171a, pre-MtmiR171h, pre-MtmiR393a, pre-MtmiR393b, pre-MtmiR396a, pre-MtmiR396b; experiment: Specificity of miPEP171b1: expression of different microRNA precursors of M. truncatula; assay type: in vivo, Medicago truncatula; settings: overexpression of MtmiPEP171b1 or treatment with MtmiPEP171b1 (0.1 μM), ratio to control roots
Protocol: The expression of different microRNA precursors of Medicago truncatula (MtmiR171b SEQ ID NO: 319, MtmiR169 SEQ ID NO: 367, MtmiR169a SEQ ID NO: 368, MtmiR171a SEQ ID NO: 369, MtmiR171h SEQ ID NO: 370, MtmiR393a SEQ ID NO: 371, MtmiR393b SEQ ID NO: 372, MtmiR396a SEQ ID NO: 373 and MtmiR396b SEQ ID NO: 374) was determined and compared between control plants and plants in which MtmiORF171b encoding MtmiPEP171b1 was overexpressed (FIG. 5A), or between control plants and plants grown on culture medium containing MtmiPEP171b1 (FIG. 5B).
as §1

[6] = tested on: MtmiR171b; experiment: Regulation of MtmiR171b by MtmiPEP171b1 in transformed tobacco leaves; assay type: in vivo, Nicotiana benthamiana; settings: for relative expression of pre-MtmiR171b (expression of MtmiR171b): co-expression of MtmiPEP171b1 (MtmiORF171b ATG vs ATT), FIG. 7
Protocol: In order to determine whether the mechanism of regulation of the microRNAs is conserved in other plant species, the regulation of MtmiR171b by MtmiPEP171b1 was tested in a different cellular model. For this, MtmiR171b and MtmiPEP171b1 were introduced into tobacco leaves.
The accumulation of MtmiR171b was measured in tobacco leaves transformed in order to express MtmiR171b of Medicago truncatula starting from wild-type pri-miRNA capable of producing MtmiPEP171b1, or starting from a mutated version of pri-miRNA incapable of producing MtmiPEP171b1 (in which the start codon ATG of MtmiORF171b has been replaced with ATT) (FIG. 6 and FIG. 20).
The accumulation of pre-MtmiR171b was measured in tobacco leaves transformed in order to express MtmiR171b of Medicago truncatula alone (control), or additionally expressing the wild-type MtmiORF171b of Medicago truncatula (35SmiPEP171b1 ATG), or a mutated version of MtmiORF171b in which the start codon ATG has been replaced with ATT (35SmiPEP171b1 ATT) (FIG. 7 and FIG. 21).
The leaves were watered by spraying with the peptides using peptide solutions at different concentrations (0.01, 0.1, 1 μM), firstly 12h before sampling and then a second time 30 min before sampling.
as §1, §3, §2

[7] = tested on: AtmiR164a; experiment: Northern blot of miR164a in A. thaliana roots treated with synthetic AtmiPEP164a; assay type: in vivo, Arabidopsis thaliana; settings: 0.1 μM synthetic miPEP164a in water vs water
Protocol: Northern blot analysis was carried out according to the protocol described in Lauressergues et al. Plant J, 72(3): 512-22, 2012.
The biological samples were homogenized in a buffer containing 0.1 M of NaCl, 2% of SDS, 50 mM of Tris-HCl (pH 9), 10 mM of EDTA (pH 8) and 20 mM of mercaptoethanol, and the RNA was extracted twice with a phenol/chloroform mixture and was precipitated with ethanol.
The RNA was loaded on PAGE 15% gel and transferred to a nylon membrane (HybondNX, Amersham). RNA was hybridized with a radioactive oligonucleotide probe labelled at its end, in order to detect the RNA U6 or for miR164a.
The hybridizations were carried out at 55° C. The hybridization signals were quantified using a phosphorimager (Fuji) and normalized with the signal of the specific probe of RNA U6.

[8] = tested on: Arabidopsis thaliana; experiment: Growth of Arabidopsis thaliana plants watered with synthetic miPEP; assay type: in vivo; settings: A. thaliana; watered with 0.1 μM synthetic peptide, 3 weeks of growth, vs water
Protocol: The photographs show two plants (top views and side views) after 3 weeks of growth: a control plant watered with water (A), and a plant watered with a composition of 0.1 μM of synthetic peptide corresponding to AtmiPEP164a (B).
The photographs show two plants (top views and side views) after 3 weeks of growth: a control plant watered with water (A), and a plant watered with a composition of 0.1 μM of synthetic peptide corresponding to AtmiPEP319a1 (B).

[9] = tested on: DmmiR8; experiment: Transfected Drosophila melanogaster S2 cells, relative expression of Pre-miR8; assay type: cell-based
Protocol: S2 cells are cultured in a T75 flask in 12 mL of Schneider's medium (GIBCO), containing 1% of penicillin 100 U/mL and […] (Sigma) and 10% of decomplemented foetal calf serum (30 min at 56° C.). The transient transfections are carried out using the FuGENE® HD transfection kit (Roche), according to the recommendations. Conventionally, 1.5 million S2 cells, previously seeded in 6-well plates (3 ml of medium per well), are transfected with 250 ng of total plasmid DNA. The DNA is brought into contact with the Fugene (3 μl) in 100 μl of OPTIMEM (GIBCO). After 20 minutes, the transfection reagent formed is brought into contact with the cells in the culture medium. The RNA of the cells is extracted 66 h after transfection.

[10] = overexpression of MtmiPEP171b1 (MtmiORF171b)
[11] = tobacco expressing MtmiR171b, overexpression of MtmiPEP171b1 or 0.1 μM miPEP171b1, FIG. 9

## MFQTLYLFIYIHTNILLLS (listed as Arabidopsis thaliana) [AtmiPEP319a2]
[1]
  accumulation of AtmiR319a: increase

## MLLHRLSKFCKIERDIVYIS (listed as Medicago truncatula) [MtmiPEP171b1]
[2]; vs control plant
  accumulation of MtmiR171b: increase
  expression of the HAM1 gene: decrease
  expression of the HAM2 gene: decrease
[2]; vs control plants
  accumulation of pre-MtmiR171b: increase
[3]; [10]
  number of lateral roots: reduction
[3]; watering with MtmiPEP171b1 at 0.1 μM once daily for 5 days
  number of lateral roots: reduction
[4]
  accumulation of MtmiR171b: increase
  expression of the HAM1 gene: decrease
  expression of the HAM2 gene: decrease
[5]
  effect on the accumulation of the other miRNAs (precursors of MtmiR169, 169a, 171a, 171h, 393a, 393b, 396a, 396b): not on the other miRNAs
[6]; tobacco expressing MtmiR171b
  relative expression of pre-MtmiR171b (expression of MtmiR171b): increases
[6]; tobacco expressing MtmiR171b, MtmiPEP171b1 sprayed (0.1 μM) twice, 12 h and 30 min before sampling
  accumulation of MtmiR171b: increase
[6]; [11]
  accumulation of MtmiR171b: increase
  accumulation of pre-MtmiR171b: increase
[6]; tobacco leaves, tags His, HA or GFP
  expression of MtmiR171b (pre-MtmiR171b) with MtmiPEP171b1 with or without protein tags: increases the expression of MtmiR171b, and this effect is independent of the presence of tags
[6]; tobacco, vector expressing mtmiPEP171b vs empty vector, ATT mutant or degenerate ORF, FIG. 21
  relative expression of MtmiR171b: increases
[6]; tobacco, pri-MtmiR171b with ATG of miORF171b replaced with ATT (or miORF deleted) vs wild-type pri-MtmiR171b
  accumulation of MtmiR171b in the absence of translation of MtmiPEP171b1: marked decrease

## MPSWHGMVLLPYVKHTHASTHTHTHNIYGCACELVFH (listed as Arabidopsis thaliana) [AtmiPEP164a1]
[7]
  accumulation of miR164a (Northern blot): increase
[8]
  plant growth: increases plant growth significantly

B1: ATGCTTCTTCATAGGCTCTCCAAATTTTGCAAAATTGAAAGAGACATAGTATATATATCTTAG (nucleic acid, listed as Medicago truncatula)
DNA: ATGCTTCTTCATAGGCTCTCCAAATTTTGCAAAATTGAAAGAGACATAGTATATATATCTTAG
modifications: listed as DNA, chemistry not fully specified
[3]; [10]
  number of lateral roots: reduction
[4]
  accumulation of MtmiR171b: increase
  expression of the HAM1 gene: reduction
  expression of the HAM2 gene: reduction
[6]; tobacco expressing MtmiR171b
  relative expression of pre-MtmiR171b (expression of MtmiR171b): increase

B2: MEPGFVFVLFPTHLSTQHTQREKSILVMGLNLQSAKQSDKQNSKERKKNTQINSQRIPYRQGGQCSKVLSP (peptide)
chain: MEPGFVFVLFPTHLSTQHTQREKSILVMGLNLQSAKQSDKQNSKERKKNTQINSQRIPYRQGGQCSKVLSP
modifications: Drosophila melanogaster
[9]; D. melanogaster cells overexpressing DmmiPEP8 vs miPEP8 with mutated start codons
  expression of DmmiR8 (relative expression of Pre-miR8): increases
[9]; D. melanogaster cells overexpressing wild-type DmmiR8 vs DmmiR8 with mutated miPEP8 start codons
  expression of DmmiR8 (relative expression of Pre-miR8): increases
